According to US11084821B2 (MISSION THERAPEUTICS LIMITED, priority 2016, dated 2021):

Biological target: USP30 (Homo sapiens (Human), UniProt Q70CQ3)
Assay: USP30 Biochemical IC50 Assay
Settings: fluorescence polarisation, TAMRA labelled peptide linked to ubiquitin; enzyme and compound incubated 30 min; read after 2 h at room temperature; read-out: IC50 range
Procedure: USP30 Biochemical IC50 Assay
Dilution plates were prepared at 21 times the final concentration (2100 μM for a final concentration of 100 μM) in 50% DMSO in a 96-well polypropylene V-bottom plate (Greiner #651201). A typical 8-point dilution series would be 100, 30, 10, 3, 1, 0.3, 0.1, 0.03 μM final. Reactions were performed in duplicate in black 384 well plates (small volume, Greiner 784076) in a final reaction volume of 21 μl. Either 1 μl of 50% DMSO or diluted compound was added to the plate. USP30 was diluted in reaction buffer (40 mM Tris, pH 7.5, 0.005% Tween 20, 0.5 mg/ml BSA, 5 mM beta-mercaptoethanol) to the equivalent of 0.05 μl/well and 10 μl of diluted USP30 was added to the compound. Enzyme and compound were incubated for 30 min at room temp. Reactions were initiated by the addition of 50 nM of TAMRA labelled peptide linked to ubiquitin via an iso-peptide bond as fluorescence polarisation substrate. Reactions were read immediately after addition of substrate and following a 2 h incubation at room temperature. Readings were performed on a Pherastar Plus (BMG Labtech). Excitation 540 nm; Emission 590 nm.

Chain of USP30 (Q70CQ3 57-517): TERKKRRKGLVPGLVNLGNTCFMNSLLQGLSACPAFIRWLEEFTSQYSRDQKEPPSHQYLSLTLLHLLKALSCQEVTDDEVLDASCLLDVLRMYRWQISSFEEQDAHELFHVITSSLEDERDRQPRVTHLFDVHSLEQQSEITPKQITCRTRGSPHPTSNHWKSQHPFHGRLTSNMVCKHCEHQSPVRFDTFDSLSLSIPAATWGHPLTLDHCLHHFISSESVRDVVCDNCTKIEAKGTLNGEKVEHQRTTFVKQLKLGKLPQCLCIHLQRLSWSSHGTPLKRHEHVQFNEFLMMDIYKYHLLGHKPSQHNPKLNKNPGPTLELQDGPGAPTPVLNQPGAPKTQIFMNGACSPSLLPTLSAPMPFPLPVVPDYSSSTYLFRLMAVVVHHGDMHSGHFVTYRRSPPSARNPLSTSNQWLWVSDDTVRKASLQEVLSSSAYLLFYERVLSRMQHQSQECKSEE

Row | IC50 | SMILES
1 | 1 to 10 nM | N#Cc1cccc(-c2cnc(N3CCO[C@@H]4CN(C#N)C[C@@H]43)nc2)c1 (racemic) [Example 24, rac-(4aR,7aS)-4-(5-(3-Cyanophenyl)pyrimidin-2-yl)hexahydropyrrolo[3,4-b][1,4]oxazine-6(2H)-carbonitrile]
2 | 1 to 10 nM | N#Cc1cccc(-c2cnc(N3CCO[C@@H]4CN(C#N)C[C@@H]43)cn2)c1 (racemic) [Example 25, rac-(4aR,7aS)-4-(5-(3-Cyanophenyl)pyrazin-2-yl)hexahydropyrrolo[3,4-b][1,4]oxazine-6(2H)-carbonitrile]
3 | 1 to 10 nM | N#Cc1ccnc(-c2ccc(N3CCO[C@@H]4CN(C#N)C[C@@H]43)nc2)c1 (racemic) [Example 26, rac-(4aR,7aS)-4-(4-Cyano-[2,3′-bipyridin]-6′-yl)hexahydropyrrolo[3,4-b][1,4]oxazine-6(2H)-carbonitrile]
4 | 10 to 100 nM | N#Cc1cccc(-c2ccc(N3CCO[C@@H]4CN(C#N)C[C@@H]43)nc2)n1 (racemic) [Example 27]
5 | 100 to 1000 nM | N#CN1C[C@H]2OCCN(c3ccc(-c4ccccc4)nn3)[C@H]2C1 (relative stereo) [Example 2, cis-4-(6-Phenylpyridazin-3-yl)hexahydropyrrolo[3,4-b][1,4]oxazine-6(2H)-carbonitrile]
6 | 1000 to 10000 nM | N#CN1C[C@@H]2OCCN(c3nc4ccc(F)cc4s3)[C@@H]2C1 (relative stereo) [Example 3, cis-4-(6-Fluorobenzo[d]thiazol-2-yl)hexahydropyrrolo[3,4-b][1,4]oxazine-6(2H)-carbonitrile]
7 | 1000 to 10000 nM | N#CN1C[C@@H]2OCCN(c3cc(-c4ccccc4)ccn3)[C@@H]2C1 (relative stereo) [Example 4, cis-4-(4-Phenylpyridin-2-yl)hexahydropyrrolo[3,4-b][1,4]oxazine-6(2H)-carbonitrile]
8 | 100 to 1000 nM | N#CN1C[C@@H]2OCCN(c3ccc(-c4ccccc4)cn3)[C@@H]2C1 (relative stereo) [Example 5, cis-4-(5-Phenylpyridin-2-yl)hexahydropyrrolo[3,4-b][1,4]oxazine-6(2H)-carbonitrile]
9 | 100 to 1000 nM | N#CN1C[C@@H]2OCCN(c3cccc(-c4ccccc4)n3)[C@@H]2C1 (relative stereo) [Example 6, cis-4-(6-Phenylpyridin-2-yl)hexahydropyrrolo[3,4-b][1,4]oxazine-6(2H)-carbonitrile]
10 | 100 to 1000 nM | N#CN1C[C@@H]2OCCN(c3nccc(-c4ccccc4)n3)[C@@H]2C1 (relative stereo) [Example 7, cis-4-(4-Phenylpyrimidin-2-yl)hexahydropyrrolo[3,4-b][1,4]oxazine-6(2H)-carbonitrile]
11 | 100 to 1000 nM | N#CN1C[C@H]2CCN(c3ncc(-c4ccccc4)s3)[C@H]2C1 (relative stereo) [Example 8, cis-1-(5-Phenylthiazol-2-yl)hexahydropyrrolo[3,4-b]pyrrole-5(1H)-carbonitrile]
12 | 100 to 1000 nM | N#CN1C[C@H]2OCCN(c3ncc(-c4ccccc4)s3)[C@H]2C1 (relative stereo) [Example 9, cis-4-(5-Phenylthiazol-2-yl)hexahydropyrrolo[3,4-b][1,4]oxazine-6(2H)-carbonitrile]
13 | 100 to 1000 nM | N#CN1C[C@@H]2OCCN(c3ncc(-c4ccccc4)s3)[C@H]2C1 (relative stereo) [Example 10, trans-4-(5-Phenylthiazol-2-yl)hexahydropyrrolo[3,4-b][1,4]oxazine-6(2H)-carbonitrile]
14 | 1 to 10 nM | N#Cc1cc(-c2ccc(N3CCO[C@H]4CN(C#N)C[C@H]43)nc2)ccn1 (single isomer, unassigned) [Example 19, cis-4-(2′-Cyano-[3,4′-bipyridin]-6-yl)hexahydropyrrolo[3,4-b][1,4]oxazine-6(2H)-carbonitrile]
15 | 10 to 100 nM | N#Cc1cc(-c2ccc(N3CCO[C@H]4CN(C#N)C[C@H]43)nc2)ccn1 (single isomer, unassigned) [Example 20, cis-4-(2′-Cyano-[3,4′-bipyridin]-6-yl)hexahydropyrrolo[3,4-b][1,4]oxazine-6(2H)-carbonitrile]
16 | 100 to 1000 nM | N#Cc1cc(-c2ccc(N3CCO[C@H]4CN(C#N)C[C@H]43)nn2)ccn1 (single isomer, unassigned) [Example 21, cis-4-(6-(2-Cyanopyridin-4-yl)pyridazin-3-yl)hexahydropyrrolo[3,4-b][1,4]oxazine-6(2H)-carbonitrile]
17 | 10 to 100 nM | N#Cc1cc(-c2ccc(N3CCO[C@H]4CN(C#N)C[C@H]43)nn2)ccn1 (single isomer, unassigned) [Example 22, cis-4-(6-(2-Cyanopyridin-4-yl)pyridazin-3-yl)hexahydropyrrolo[3,4-b][1,4]oxazine-6(2H)-carbonitrile]
18 | 1000 to 10000 nM | N#CN1CC2CCN(c3ccccc3)C2C1 (centres unmarked) [Example 1, 1-Phenylhexahydropyrrolo[3,4-b]pyrrole-5(1H)-carbonitrile]
19 | 1000 to 10000 nM | N#CN1CC2CCCN(c3ncc(-c4ccccc4)s3)C2C1 (centres unmarked) [Example 11, 1-(5-Phenylthiazol-2-yl)octahydro-6H-pyrrolo[3,4-b]pyridine-6-carbonitrile]
20 | 1000 to 10000 nM | CN(c1ncc(-c2ccccc2)s1)C1CCN(C#N)C1 (centres unmarked) [Example 13, 3-(Methyl(5-phenylthiazol-2-yl)amino)pyrrolidine-1-carbonitrile]
21 | 1000 to 10000 nM | CN(c1ccc(-c2ccccc2)cn1)C1CCN(C#N)C1 (centres unmarked) [Example 14, 3-(Methyl(5-phenylpyridin-2-yl)amino)pyrrolidine-1-carbonitrile]
22 | 10 to 100 nM | N#CN1C[C@H]2CCN(c3nc4ccc(OC(F)(F)F)cc4[nH]3)[C@H]2C1 [Example 15, (3aR,6aR)-1-(6-(Trifluoromethoxy)-1H-benzo[d]imidazol-2-yl)hexahydropyrrolo[3,4-b]pyrrole-5(1H)-carbonitrile]
23 | 100 to 1000 nM | N#Cc1ccc2nc(N3CC[C@@H]4CN(C#N)C[C@@H]43)[nH]c2c1 [Example 16, 2-((3aR,6aR)-5-Cyanohexahydropyrrolo[3,4-b]pyrrol-1(2H)-yl)-1H-benzo[d]imidazole-6-carbonitrile]
24 | 100 to 1000 nM | COc1ccc2nc(N3CC[C@@H]4CN(C#N)C[C@@H]43)[nH]c2c1 [Example 17, (3aR,6aR)-1-(6-Methoxy-1H-benzo[d]imidazol-2-yl)hexahydropyrrolo[3,4-b]pyrrole-5(1H)-carbonitrile]
25 | 100 to 1000 nM | CN(c1nc2ccc(C(F)(F)F)cc2[nH]1)[C@@H]1CCN(C#N)C1 [Example 18, (R)-3-(Methyl(6-(trifluoromethyl)-1H-benzo[d]imidazol-2-yl)amino)pyrrolidine-1-carbonitrile]

Row | SMILES | IC50
26 | N#Cc1cccc(-c2cccnc2N2CCO[C@H]3CN(C#N)C[C@H]32)c1 (racemic) [Example 23, rac-(4aR,7aS)-4-(5-(3-Cyanophenyl)pyridin-6-yl)hexahydropyrrolo[3,4-b][1,4]oxazine-6(2H)-carbonitrile] | 1 to 10 nM
